Data set [1] is described as follows: solubility in organic solvents. The conditions noted are these: methanol, ethanol, dimethylformamide, dimethyl sulfoxide, ethyl acetate and the like.
The subject of data set [2] is Candida albicans. In words: similar assay (MIC), expanded panel of 34 strains of Candida albicans. To be noted: 48 h; only against 5 of 34 strains of Candida albicans. The data set is classed as cell-based. As for the experimental part: (§1) The activity may be seen in an agar dilution assay employing a yeast nitrogen base dextrose agar medium. In carrying out the assay, Compound I was solubilized in 10 percent dimethyl sulfoxide (DMSO) supplemented with one drop of Tween 20. Twofold dilutions were made with sterile distilled water/10 percent DMSO to obtain final drug concentrations in the agar dilution assay plates ranging from 128 to 0.06 μg/ml.
(§2) The yeast cultures, maintained in yeast maltose (YM) broth, were transferred to fresh YM medium and incubated overnight at 35° C. with shaking (250 rpm). After incubation, each culture was diluted in sterile saline to yield a final concentration of 3×10^5 to 3×10^6 colony forming units (CFU)/ml.
(§3) Each prepared plate was inoculated using a Denley Multipoint Inoculator (Denley, Sussex, England) which delivers approximately 0.001 milliliter to the ar surface resulting in inoculation of from 3×10^2 to 3×10^3 CFUs. The plates were incubated at 28° C. for 48 hours. The minimum inhibitory concentrations (MICs) were recorded as the lowest concentrations of drug showing no growth or less than three CFU/spot.
In a similar assay, Compound I was tested against an expanded panel of 34 different strains of Candida albicans and 13 different strains of Candida parapsilosis.

For data set [3], the system named is yeasts Saccharomyces cerevisiae, Candida albicans, Candida rugosa, Brettanomyces bruxellensis, Torulospora hansenii, Candida guilliermondii, Candida …. In words: disc diffusion method, yeasts. The data set is classed as cell-based. To be noted: 25 microliter/disc, 28° C. or 37° C., 24 hours. As for the experimental part:
(§4) This may be seen in an antifungal assay employing a disc diffusion method against yeasts and filamentous fungi (molds).
(§5) In the disc diffusion method, seeded assay plates are first prepared in one of the following manners according to the type of organism.
Inocula for yeasts are prepared from overnight broth cultures then diluted into potato dextrose […] to a final concentration of either 40 percent or 70 percent transmission at 660 nm.
(§6) For three strains of Candida albicans and one strain of Saccharomyces cerevisiae, sterile saline is employed in place of potato dextrose broth. Assay plates are prepared by diluting the inoculum into appropriate molten agar medium, cooled to 45° C. to obtain a final concentration of 4 percent (volume/volume).
(§7) The seeded agar media thus prepared are dispensed into petri dishes for assays (11 milliliters per dish).
The samples to be tested for production of antifungal agent are applied to 6.2 mm. filter paper discs (25 microliter/disc) and air dried at 24° C. When the sample to be tested is a crude broth, it may be centrifuged prior to application. The discs bearing the material to be tested are then applied employing sterile conditions to the seeded assay plates and the samples rewet with 25 percent sterile aqueous dimethylsulfoxide (25 μl/disc). […] Following incubation, the inhibition zones are measured and recorded.
A general note: Agar diffusion results depend on both activity and mobility in agar.

The nature of the next data set: in vitro. To be noted: mouse; fresh blood of CD-1 female mice; 25° C., two hours; highest drug concentration that did not lyse the red blood cells; tested 0.39 to 400 μg/ml in 5 percent dextrose; read-out: minimum lytic concentration (MLC). The data set is classed as cell-based. As for the experimental part:
The property of Compound I of requiring concentration of drug far above the therapeutic dose levels to effect red blood cell lysis was discovered in a standard titration/hemolysis assay using fresh blood drawn from CD-1 female mice. Concentration of drug in the range of from 0.39 to 400 μg/ml in 5 percent dextrose and a drug free control were employed.
In carrying out the determination, the assay tubes prepared by mixing together 2 milliliters of appropriate drug dilution and 0.5 milliliter of red blood cell suspension were gently shaken to mix the contents and then the tubes were incubated at 25° C. for two hours. At the end of this time, the tubes were examined visually for complete or partial red blood cell hemolysis and compared to a drug free control. […] The MLC for Compound I was 400 μg/ml.

Data set [4] has as its system Candida albicans. In words: agar dilution assay (MIC), Candida albicans. The data set is classed as cell-based. The conditions noted are these: C. albicans strain MY1029; possible media interference with drug activity. As to the method: as §1, §2, §3
On the technique in general: Agar dilution tests growth on a series of plates holding different concentrations.

The test system of data set [5] is Candida albicans. The experiment in a line: mice infected with Candida albicans. It is filed as in vivo.
In data set [6] the test system is filamentous fungi Cochliobolus miyabeanus, Penicillium sp. (three strains), Aspergillus niger, Trichoderma sp., Trichoderma liqnorum, Alternaria solani …. In words: disc diffusion method, filamentous fungi. To be noted: 25 microliter/disc, 28° C. or 37° C., 24 hours. The data set is classed as cell-based. As for the experimental part: as §4, §5
Inocula for filamentous fungi are prepared by scraping the surface of stock plates maintained on potato dextrose agar with a moistened sterile dacron swab. The spores and mycelia are then suspended in 10 milliliters of sterile potato dextrose broth and adjusted to 70 percent transmission at 660 nm.
as §6, §7
The samples to be tested for production of antifungal agent are applied to 6.2 mm. filter paper discs (25 microliter/disc) and air dried at 24° C. When the sample to be tested is a crude broth, it may be centrifuged prior to application. […] Following incubation, the inhibition zones are measured and recorded.

Starred links: 1 amine or outer side, 2 acyl side, 3 side chain; linkers in the order of their positions; H or OH if unused. Positions of bridges follow the written chain, without caps; N, C: chain ends. Non-standard residues stand in square brackets, D forms with d. Residues, ends and D or L forms follow the SMILES beside them. ξ: configuration not given here. *: point of attachment. ξOrn(4,5-diOH) = O=C(C(CC(O)C(O)N[*:3])N[*:1])[*:2]; ξhTyr(βξ-OH,γξ-OH) = NC(C(=O)O)C(O)C(O)c1ccc(O)cc1; ξPro(3ξ-OH,4ξ-Me) = CC1CNC(C(=O)O)C1O; X2 = NC(=O)CC(O)C(N[*:1])C(=O)[*:2]; X1 = CCC(C)CC(C)CCCCCCCCC(=O)*; Hyp = O=C(O)[CH]1C[CH](O)CN1 Where only a bound is given, the exact number is not on record here.

As usually defined, the MIC is the lowest concentration found to suppress growth. A high value points to a less susceptible organism.

Turning to `CCC(C)CC(C)CCCCCCCCC(=O)NC1CC(O)C(O)NC(=O)C2C(O)C(C)CN2C(=O)C(C(O)CC(N)=O)NC(=O)C(C(O)C(O)c2ccc(O)cc2)NC(=O)C2CC(O)CN2C(=O)C(C(C)O)NC1=O` [Compound I, 1-[(4R, 5R)-4,5-dihydroxy-N^2-(10,12-dimethyl-1-oxotetradecyl)-L-ornithine]-5-(threo-3-hydroxy-L-glutamine)echinocandin B] (X1-[ξOrn(4,5-diOH)]T[Hyp][ξhTyr(βξ-OH,γξ-OH)][X2][ξPro(3ξ-OH,4ξ-Me)]; lactam 1-C; configuration not given here), the “solubility in organic solvents” value in data set [1] is reported as “soluble”. The compound further returned an MIC in the data set with Candida albicans [2] of more than 1 µg/mL. The “antifungal properties (inhibition zones)” value in data set [3] and in data set [6] was “good antifungal properties” each time. Further, the MNTC at 2 h in the data set “in vitro” turned out to be 400 µg/mL. In addition, the “growth observed (footnote to MIC)” value in the data set with Candida albicans [4] is listed as “Substantially reduced growth was observed”. Also, the “eradication of Candida albicans from kidneys” value in the data set with Candida albicans [5] (kidneys of experimentally infected mice) is listed as “eradicate Candida albicans from kidneys”. In the data set on Candida albicans [5] (mice infected with Candida albicans), the “survival of mice infected with Candida albicans” value was “significantly prolong the survival”.

The values are drawn from patent US4931352A, “Antifungal fermentation product” (Merck & Co., Inc., priority 1989, dated 1990).
